Data on 1 compound can be found in patent US9221791B2, “Metalloenzyme inhibitor compounds” (Viamet Pharmaceuticals, Inc., priority 2011, dated 2015).

One data set has as its target CYP3A4 (Homo sapiens (Human), UniProt P08684). Briefly: Inhibition of Liver Cytochrome P450 Enzymes (pooled human liver microsomes), CYP3A4. The data set is classed as in vitro ADME. Here is the method:
B. Inhibition of Liver Cytochrome P450 Enzymes
Solutions of each test compound were separately prepared at concentrations of 20000, 6000, 2000, 600, 200, and 60 μM by serial dilution with DMSO:MeCN (50:50 v/v). The individual test compound solutions were then diluted 20-fold with DMSO:MeCN:deionized water (5:5:180 v/v/v) to concentrations of 1000, 300, 100, 30, 10, and 3 μM. Mixtures of isozyme inhibitors (sulfaphenazole, tranylcypromine, and ketoconazole as specific inhibitors of isozymes 2C9, 2C19, and 3A4, respectively) were prepared containing each inhibitor at concentrations of 6000, 2000, 600, 200, 60, 20, 6, and 2 μM by serial dilution with DMSO:CH3CN (50:50 v/v). […]
Pooled human liver microsome suspension (20 mg/mL) was diluted with phosphate buffer to obtain a 5 mg/mL suspension. […] Separate stock solutions of each substrate were prepared in DMSO:MeCN (50:50 v/v), mixed, and diluted in phosphate buffer to obtain a single solution containing each substrate at five times its experimentally determined Km concentration. […]
Substrate solution and microsome suspension were combined in a 1:1 volume ratio, mixed, and distributed to reaction wells of a PCR plate. […] A portion of the supernatant was analyzed by gradient reverse-phase HPLC with detection by electrospray ionization triple quadrupole mass spectrometry in the positive ion mode. […]

The next data set concerns C. albicans. The data set can be described thus: Minimum Inhibitory Concentration (MIC) (C. albicans), CLSI M27-A2. Type of data set: cell-based. Conditions: Candida albicans; approximately 48 h at 35±1° C.; about 50% growth reduction. Here is the method:
A. Minimum Inhibitory Concentration (MIC) (C. albicans) Compounds of the present disclosure were assessed for their ability to inhibit the growth of common strains of fungus, C. albicans using a standardized procedure (CLSI M27-A2). Stock solutions of the test compounds and standards were prepared in DMSO at 1,600 μg/mL (C. albicans). Eleven, serial, one-half dilutions of compounds were prepared in 96-well plates in RPMI+MOPS. The assay concentration ranges were 8-0.001 μg/mL (C. albicans). Cell suspensions of C. albicans were prepared and added to each well at concentrations of approximately 3.7×10^3 colony-forming-units per milliliter (cfu/mL). All testing was in duplicate. The inoculated plates were incubated for approximately 48 h at 35±1° C. At the completion of incubation the wells of each plate were evaluated visually for the presence of fungal growth. […] For QC purposes C. krusei isolate ATCC 6258 (4.0×10^3 cfu/mL) was included in the VOR assay.

Data set [1] relates to Septoria tritici (ATCC 26517). The data set can be described thus: Minimum Inhibitory Concentration (MIC) (Septoria tritici), CLSI-based microdilution. The data set is classed as cell-based. Conditions: S. tritici ATCC 26517; 22° C. for seven days; 50% reduction in growth. The essentials: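 S. tritici (ATCC 26517) tested by CLSI-style broth microdilution for filamentous fungi in RPMI-1640/MOPS, 2-fold series 16–0.016 μg/mL (11 concentrations, 2% DMSO before inoculum), duplicate rows. Inoculum ~5×10^4 cfu/mL; plates incubated 7 days at 22 °C in the dark, static; growth scored on a rating scale.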

Converted amounts (≈) assume the structure as drawn.

CYP3A4, sequence (P08684 whole entry): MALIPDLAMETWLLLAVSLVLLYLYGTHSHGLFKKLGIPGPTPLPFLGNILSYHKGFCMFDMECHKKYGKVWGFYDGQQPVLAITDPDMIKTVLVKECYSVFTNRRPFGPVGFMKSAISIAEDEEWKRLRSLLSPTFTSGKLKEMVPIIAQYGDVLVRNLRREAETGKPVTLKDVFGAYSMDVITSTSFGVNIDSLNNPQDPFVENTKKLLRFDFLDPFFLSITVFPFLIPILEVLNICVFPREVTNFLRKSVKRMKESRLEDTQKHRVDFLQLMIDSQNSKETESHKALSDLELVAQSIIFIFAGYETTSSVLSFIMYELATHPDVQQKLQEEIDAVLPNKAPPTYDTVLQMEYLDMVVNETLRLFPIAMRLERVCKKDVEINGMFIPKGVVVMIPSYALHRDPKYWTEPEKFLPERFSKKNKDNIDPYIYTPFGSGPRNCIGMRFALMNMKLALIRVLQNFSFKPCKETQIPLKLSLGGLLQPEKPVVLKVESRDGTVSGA

By IC50 is commonly meant the concentration that inhibits the measured activity by half. A lower IC50 goes with inhibition by little substance. Broadly, the MIC is the lowest concentration that inhibits growth of the organism. For the compound `OC(Cn1cnnn1)(c1ccc(F)cc1F)C(F)(F)c1ccc(-c2ccc(F)nc2)cn1` (stereo not drawn) [Compound 31, 2-(2,4-Difluorophenyl)-1,1-difluoro-1-(6′-fluoro-[3,3′-bipyridin]-6-yl)-3-(1H-tetrazol-1-yl)propan-2-ol], the half-maximal inhibitory concentration (IC50) against CYP3A4 came out at 33 µM. Also, the MIC with C. albicans was 0.062 mg/L (≈ 0.138 µM). Further, the “Septoria Rating (MIC)” value in data set [1] is “C (>1.5-4)”.
